These are literature values, as cited in patent publication US20160052938A1, “SPIRO[3H-INDOLE-3,2'-PYRROLIDIN]-2(1H)-ONE COMPOUNDS AND DERIVATIVES AS MDM2-P53 INHIBITORS” (Boehringer Ingelheim International GmbH, priority 2014, published 2016).

In this data set the test system is acute lymphoblastic leukemia (ALL) xenograft models with mixed-lineage leukemia (MLL) rearrangement. The conditions noted are these: Carol et al. 2013; cited from earlier work.

Regarding `CCOc1cc(C(C)(C)C)ccc1C1=N[C@@](C)(c2ccc(Cl)cc2)[C@@](C)(c2ccc(Cl)cc2)N1C(=O)N1CCN(CCCS(C)(=O)=O)CC1` [RG-7112], the efficacy result is “particularly efficacious”.
